Consider 1 compound from PMC12454603 (Archives of Toxicology, 2025).

Where “and” joins values, the source holds several entries; their conditions need not be identical. Equal entries are not always repeated.

The test system of data set [1] is rat liver S9. The data set is described as follows: Glucuronidation of 3-OH-8-MBaP in incubations with rat liver S9. In kind it is in vitro ADME. As for the experimental part:
(§1) The conjugation of 3-OH-8-MBaP with glucuronic acid was studied in incubations with rat liver S9 in vitro. The incubation time and S9 protein concentration were optimized to ascertain linearity of glucuronidation with time and the amount of S9 protein. The incubation was performed with a 200 µL mixture in glass vials, and consisted of (final concentrations) […] Tris buffer (pH 7.4), 0.1 mg/ml pooled rat liver S9, 3 mM UDPGA, 5 mM MgCl2, 0.025 mg/ml alamethicin, and 0–100 µM 3-OH-8-MBaP. No metabolites were formed in control incubations without either rat liver S9 or co-factor UDPGA. The final concentration of substrate vehicle (DMSO) in the incubation mixture was 1% (v/v). The incubation mixtures without substrate were pre-incubated at 37 °C for 1 min. The reaction was initiated by adding substrate to the incubation mixtures that were subsequently incubated at 37 °C for 20 min, after which the reaction was terminated by adding 100 µL ice-cold acetonitrile. The incubation mixture was subsequently centrifuged at 3717g at 4 °C for 5 min. The supernatant was collected for ultra-performance liquid chromatography (UPLC) analysis.
(§2) An Acquity UPLC system with a photodiode array (PDA) detector was used to quantify the metabolites formed in the glucuronidation and sulfation incubations. The supernatants of the incubation samples were injected onto an Acquity UPLC BEH® C18 column ([…], 1.7 µm, Waters, Milford, MA). The total running time per sample was 22 min with a flow rate of 0.6 ml/min. The temperature of column and auto sampler was 40 °C and 10 °C, respectively. The injection volume was 3.5 µL and the detection wavelength ranged from 190 to 400 nm. Two eluents were used including A (nanopure with 0.1% (v/v) TFA) and B (acetonitrile with 0.1% (v/v) TFA). The gradient elution started from 90% A and 10% B applied from 0.0 min to 0.5 min, which was changed to 10% A and 90% B from 0.5 to 15.5 min and then kept at 10% A and 90% B from 15.5 min to 18.5 min, and changed back to 90% A and 10% B from 18.5 to 22.0 min. Metabolites were quantified as previously described in our study on microsomal metabolism of BaP and several of its methyl substituted analogs (Wang et al [2022]).
(§3) The concentration of the glucuronidated and sulfated metabolites was further used to calculate the velocity of the enzymatic reaction expressed in nmol/min/mg S9 protein. The curve reflecting the substrate (3-OH-8-MBaP) concentration-dependent velocity of the metabolite formation was fitted by the Michaelis–Menten equation using GraphPad Prism 5 (California, USA). The kinetic constants derived included the Km (µM) and Vmax (nmol/min/mg S9 protein).
(§4) 3-OH-8-MBaP was subsequently modeled to be conjugated by glucuronidation and sulfation in the liver. The kinetic constants for these conjugation reactions were determined in incubation experiments described in Sect. […] The scaling factors from rat liver microsomes and rat liver S9 to the whole liver were 45 mg microsomal protein/g liver and 125 mg S9 protein/g liver, respectively (Houston and Galetin [2008]).

Experiment in data set [2]: as above
The settings on record: rat, pooled rat liver S9, pH 7.4, rat liver S9, UDPGA. In kind it is in vitro ADME. The protocol:
as §1, §2, §3, §4

Data set [3] has as its system rat liver S9. Put plainly: Sulfation of 3-OH-8-MBaP in incubations with rat liver S9. In kind it is in vitro ADME. The protocol:
(§5) The conjugation of 3-OH-8-MBaP by sulfation was studied in incubations with rat liver S9 in vitro. The incubation time and S9 protein concentration were optimized to ascertain linearity of the sulfation reaction with respect to time and amount of protein. The 200 µL incubation mixture consisted of (final concentrations) […] Tris buffer (pH 7.4), 0.1 mg/ml rat liver S9, 0.2 mM PAPS and 0–100 µM 3-OH-8-MBaP. No metabolites were detected in control incubations without either rat liver S9 or co-factor PAPS. After 1-min pre-incubation of the incubation mixture without substrate, the reaction was initiated by adding substrate from a 100 times concentrated stock solution in DMSO (final concentration 1% DMSO (v/v)). The incubation mixture was incubated at 37 °C for 70 min after which 100 µL ice-cold acetonitrile was added to the incubation mixture to terminate the reaction. The incubation mixture was subsequently centrifuged at 3717g at 4 °C for 5 min. The supernatant was collected for subsequent UPLC analysis.
as §2, §3, §4

Experiment in data set [4]: as above
Format: in vitro ADME. To be noted: rat, rat liver S9, pH 7.4, rat liver S9, PAPS. As for the experimental part: as §5, §2, §3, §4

Data set [5] has as its system ES-D3 cells (differentiation into contracting cardiomyocytes). The data set is described as follows: ES-D3 cell differentiation assay of the mouse embryonic stem cell test (mEST). In kind it is cell-based. The protocol:
The developmental toxicity of the test compounds was assessed by the inhibitory effect on the differentiation of cells of the ES-D3 cell line into contracting cardiomyocytes. The assay was performed essentially as previously described (Kamelia et al. [2020]). The cells were cultured on the lid of a 96-well plate in 45 hanging drops (volume 20 µL/drop) at a concentration of 37,500 cells/ml. The 96 wells were filled with 250 µL PBS to maintain the humidity. Sterile Eppendorf lids were placed at the corners of the 96-well plate to prevent the hanging drops from contacting the 96-well plate. The plates were sealed with micropore tape and incubated at 37 °C with 5% CO2 in a humidified atmosphere for 72 h. After 72 h, 5 ml exposure medium was prepared for each concentration of each test compound with 0.25% DMSO in a 60 × 15 mm petri dish. The formed embryonic bodies (EBs) in the hanging drops on the lid of the 96-well plate were washed off with exposure medium and collected in the petri dish. The Petri dish was subsequently incubated at 37 °C with 5% CO2 in a humidified atmosphere for 48 h. After 48 h, the EBs were transferred to a 24-well plate filled with 1 ml exposure medium per well. Each well contained 1 EB. The 24-well plates were incubated at 37 °C with 5% CO2 in a humidified atmosphere for 120 h. The number of EBs with contracting cardiomyocytes and the undifferentiated EBs were counted under a microscope. In the solvent (DMSO) control, the presence of more than 21 EBs with contracting cardiomyocytes out of 24 EBs indicates a valid assay. In each experiment, 0.5 µM (0.065 µg/ml) 5-FU was used as a positive control. The result of the differentiation assay is expressed as the fraction of differentiated EBs of the total number of EBs.
The concentration–response data for the test compounds in the mEST were presented in three curves including curves for 1-day cytotoxicity, 5-day cytotoxicity, and 10-day differentiation assays. The obtained curves were fitted using the inhibition equation log (inhibitor) vs response (three parameters) option using GraphPad Prism software 5.0 (California, USA).

The mark [6] stands for this setting: scaled to whole liver, liver weight 9.1 g.
[7] abbreviates: scaled with 125 mg S9 protein/g liver.

Broadly, the Km is the substrate concentration at which the rate is half of its maximum. Usually IC50 stands for the point on the concentration scale where inhibition reaches its midpoint. In the case of `Cc1ccc2c(c1)cc1ccc3c(O)ccc4ccc2c1c43` [3-OH-8-MBaP, 3-Hydroxy-8-methyl-benzo[a]pyrene], the Km is 15.6 µM in the data set with rat liver S9 [1] (rat liver S9, UDPGA) and 26.1 µM with rat liver S9 [3] (rat liver S9, PAPS). Besides, in the data set with rat liver S9 [1] (rat liver S9, UDPGA), the “Vmax, glucuronidation of 3-OH-8-MBaP” value is 6.92 nmol/min/mg S9 protein and 6.92^e nmol/min/mg S9 protein. Further, the “Scaled Vmax, glucuronidation of 3-OH-8-MBaP” value in the data set on rat liver S9 [1] (setting [6]) was determined as 470 µmol/h/liver; with rat liver S9 [1] (setting [7]), 51.9 µmol/h/g liver. Moreover, the Km at 20 min in data set [2] stood at 16 µM. For the same compound, the “Vmax, sulfation of 3-OH-8-MBaP” value in the data set on rat liver S9 [3] (rat liver S9, PAPS) was 0.15 nmol/min/mg S9 protein and 0.15^e nmol/min/mg S9 protein. The results for the “Scaled Vmax, sulfation of 3-OH-8-MBaP” value in the data set with rat liver S9 [3] (setting [6]) and with rat liver S9 [3] (setting [7]) were 10 µmol/h/liver and 1.16 µmol/h/g liver, respectively. Also, the Km at 70 min in data set [4] turned out to be 26 µM. In data set [5] (Mus musculus, Cardiomyocyte, 240 h, read-out: IC50 for inhibition of differentiation of ES-D3 cells into beating cardiomyocytes), the IC50 came to 1.4 µM. For the same compound, the “Fold difference between IC50 of 3-OH-8-MBaP and of 3-OHBaP (3-OH-8-MBaP lower)” value in data set [5] (differentiation assay of the mEST) came out at 1.1 fold.
